Columns and labels:
[1] = biological target: T1, Potassium voltage-gated channel subfamily A member 5 (Homo sapiens, UniProt P22460); test: Inhibition of ultra-rapid delayed rectifier current Ikur in human atrial cells at 1uM; format: functional, cell-based; details: Cardiac atrium
[2] = biological target: T1, Potassium voltage-gated channel subfamily A member 5; test: Inhibition of Kv1.5 mediated ultra-rapid delayed rectifier current Ikur in human atrial cells; format: functional, cell-based, Cardiac atrium
[3] = Percent oxidation in rat S9 microsomal fraction; format: ADME; details: read-out: Oxidation

T1 sequence (P22460 whole entry): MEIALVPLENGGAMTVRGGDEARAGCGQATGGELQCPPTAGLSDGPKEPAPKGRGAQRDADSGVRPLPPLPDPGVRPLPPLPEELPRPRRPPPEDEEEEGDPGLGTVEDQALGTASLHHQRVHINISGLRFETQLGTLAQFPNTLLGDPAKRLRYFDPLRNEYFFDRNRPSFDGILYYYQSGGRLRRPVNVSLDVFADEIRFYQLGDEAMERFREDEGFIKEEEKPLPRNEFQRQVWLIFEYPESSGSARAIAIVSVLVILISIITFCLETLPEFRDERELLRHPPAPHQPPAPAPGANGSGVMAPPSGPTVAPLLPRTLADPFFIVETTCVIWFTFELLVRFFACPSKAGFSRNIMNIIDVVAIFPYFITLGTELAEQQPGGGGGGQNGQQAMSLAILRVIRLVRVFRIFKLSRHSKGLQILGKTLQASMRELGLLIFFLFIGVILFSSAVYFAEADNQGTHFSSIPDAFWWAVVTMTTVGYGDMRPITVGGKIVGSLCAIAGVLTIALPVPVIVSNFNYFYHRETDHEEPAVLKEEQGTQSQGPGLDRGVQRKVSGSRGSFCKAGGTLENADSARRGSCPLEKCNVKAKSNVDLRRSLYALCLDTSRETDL

Row | Compound | inhibition [1] | IC50 [2] | metabolised [3]
1 | COc1cccc(CON2C(=O)CSC2c2ccc(C)c(C)c2)c1 (stereo not drawn) | 75% | 269 nM | 
2 | COc1ccccc1CON1C(=O)CSC1c1ccc(Cl)cc1 (stereo not drawn) | 25% |  | 
3 | COc1ccc(CCC(=O)N2CCSC2c2ccc(C)c(C)c2)cc1 (stereo not drawn) | 89% | 150 nM | 
4 | Cc1ccc(C2SCCN2C(=O)OCc2ccccc2)cc1C (stereo not drawn) | 18% |  | 
5 | CN(C)c1ccc(C2SCCN2C(=O)COc2ccccc2)cc1 (stereo not drawn) | 55% |  | 
6 | O=C(COc1ccccc1)N1CCSC1c1ccc(Cl)c(Cl)c1 (stereo not drawn) | 93% |  | 
7 | COc1ccc(/C=C/C(=O)N2CCSC2c2ccc(C)c(C)c2)cc1 (stereo not drawn) | 92% |  | 
8 | COc1ccc(CCN2C(=O)CSC2(C)c2ccc(C)c(C)c2)cc1 (stereo not drawn) | 96% | 69 nM | 
9 | Cc1ccc(C2SCC(=O)N2OCc2ccccc2)cc1C (stereo not drawn) | 92% | 207 nM | 
10 | Cc1ccc(C2SCCN2C(=O)CCc2ccccc2)cc1C (stereo not drawn) | 87% |  | 
11 | COc1ccc(CCN2C(=O)CSC2(C)c2ccc(C)cc2)cc1 (stereo not drawn) | 88% | 390 nM | 
12 | COc1ccc(CCN2C(=O)CSC23CCc2c(C)cccc23)cc1 (stereo not drawn) | 61% | 487 nM | 
13 | O=C(COc1ccccc1)N1CCSC1c1ccc(C2CC2)cc1 (stereo not drawn) | 64% |  | 
14 | COc1ccc(CON2C(=O)CSC2c2ccccc2)cc1 (stereo not drawn) |  | 924 nM | 
15 | COc1ccccc1CON1C(=O)CSC1c1ccc(Cl)c(Cl)c1 (stereo not drawn) |  | 204 nM | 
16 | COc1ccccc1CON1C(=O)CSC1c1ccc(C)c(C)c1 (stereo not drawn) | 92% | 177 nM | 

Row | Compound | inhibition [1] | IC50 [2] | metabolised [3]
17 | Cc1ccc(C2SCCN2C(=O)COc2ccccc2)cc1C (stereo not drawn) | 95% |  | 
18 | COc1ccc(CCN2C(=O)CSC23CCc2cc(Cl)ccc23)cc1 (stereo not drawn) | 66% | 812 nM | 
19 | O=C1CSC(c2ccc(Cl)c(Cl)c2)N1OCc1ccccc1 (stereo not drawn) | 77% | 463 nM | 
20 | O=C1CSC(c2ccc(Cl)cc2)N1OCc1ccccc1 (stereo not drawn) | 35% | 997 nM | 
21 | COc1ccc(CON2C(=O)CSC2c2ccc(Cl)c(Cl)c2)cc1 (stereo not drawn) | 92% | 113 nM | 
22 | COc1cccc(CON2C(=O)CSC2c2ccc(Cl)cc2)c1 (stereo not drawn) |  | 380 nM | 
23 | COc1ccc(CC(=O)N2CCSC2c2ccc(Cl)c(Cl)c2)cc1 (stereo not drawn) |  |  | 100%
24 | COc1cccc(CON2C(=O)CSC2c2ccc(Cl)c(Cl)c2)c1 (stereo not drawn) |  | 179 nM | 
25 | COc1ccc(CC(=O)N2CCSC2c2ccc(C)c(C)c2)cc1 (stereo not drawn) | 77% | 537 nM | 
26 | COc1ccc(C2SCCN2C(=O)COc2ccccc2)cc1 (stereo not drawn) | 72% |  | 
27 | COc1ccc(CON2C(=O)CSC2c2ccc(Cl)cc2)cc1 (stereo not drawn) |  | 187 nM | 
28 | COc1ccc(CON2C(=O)CSC2c2ccc(C)c(C)c2)cc1 (stereo not drawn) |  | 95 nM | 
29 | COc1ccc(CCCC(=O)N2CCSC2c2ccc(C)c(C)c2)cc1 (stereo not drawn) | 68% |  | 
30 | Cc1ccc(C2SCCN2C(=O)COc2ccccc2)cc1 (stereo not drawn) | 80% |  | 
31 | COc1ccc(C2SCCN2C(=O)COc2ccccc2)cc1Cl (stereo not drawn) | 35% |  | 
